Results: publication PMC10747430, “^99mTc-Labeled Cyclic Peptide Targeting PD-L1 as a Novel Nuclear Imaging Probe” (Pharmaceutics, 2023)

How the values were obtained:
[1] = Reversed-phase radio-HPLC retention time (lipophilicity); assay type: physicochemical; conditions: µBondapak C18 3.9 mm × 30 cm, linear gradient 0.1% TFA-acetonitrile / 0.1% TFA-water in 20 min; used as measure of lipophilicity
Experimental: For quality control of the [^99mTc]Tc-iPD-L1 and [^99mTc]Tc-WL12 formulations, parameters such as appearance (clear solution), pH (neutral), sterility, absence of bacterial endotoxins, and radiochemical purity (radio-HPLC; Waters Corporation, Milford, CT, USA; 3.9 mm × 30 cm µBondapak™ C18 column; linear gradient system; solvent A: 0.1% TFA-acetonitrile and solvent B: 0.1% TFA-water, from 100 to 30% of A in 20 min) were evaluated according to the Mexican Pharmacopoeia, in its section on “General Methods of Analysis” (MGA). The retention time of [^99mTc]Tc-WL12 was 15.0 ± 0.3 min and 15.5 ± 0.2 min for [^99mTc]Tc-iPD-L1, while the retention times of ^99mTcO4^− and [^99mTc]Tc-EDDA/tricine were 3.5 ± 0.2 min and 4.5 ± 0.2 min, respectively.
The radiochemical purities of [^99mTc]Tc-iPD-L1 and [^99mTc]Tc-WL12 were 95.5 ± 1.5% without the need for additional purification, as determined by reversed-phase radio-HPLC (Figure 8). As expected, the retention time of [^99mTc]Tc-iPD-L1 was higher than that of [^99mTc]Tc-WL12, which is associated with their CLogP values of 6.38 and 5.78, respectively.
Figure 8 Radio-chromatogram of (a) [^99mTc]Tc-iPD-L1 and (b) [^99mTc]Tc-WL12. Reversed-phase column (C18, 3.9 × 300 mm, 10µm particle size).

[2] = tested on: HCT116 cells (PD-L1 positive); assay: Cellular uptake and internalization, HCT116; assay type: cell-based, human; conditions: HCT116, 1 × 10^6 cells/tube, 7.4 kBq, 37 °C, 1 h, n = 3
Experimental: (§1) Human colorectal cancer HCT116 (PD-L1 positive: 45.1 nTPM), human lung cancer HCC827 (PD-L1 positive: 27.1 nTPM), and […] C6 glioma cells (PD-L1 negative control) were obtained from ATCC (Atlanta, GA, USA). FBS, RPMI, and cell culture medium were obtained from Bovine and Biology (CDMX, MX). Cells were cultured in RPMI medium (5% CO2; 100 µg/mL penicillin, 15% fetal bovine serum, and 100 µg/mL streptomycin; 37 °C).
(§2) Cells diluted in phosphate-buffered saline (PBS) (pH 7.4) (1 × 10^6 cells/tube) received three different treatments: (a) [^99mTc]Tc-iPD-L1 (7.4 kBq) (n = 3), (b) and [^99mTc]Tc-WL12 (7.4 kBq) (n = 3), and (c) ^99mTcO4Na (7.4 kBq) (n = 3). Cells were incubated with each treatment at 37 °C for one hour. After incubation, tubes were measured in a NaI(Tl) detector (NML Inc., Houston, TX, USA) to establish the initial or first activity (100%). The tubes were spun at 500 g for 10 min, rinsed once with PBS, and spun once more. The liquid was removed, and the activity in the button was determined, indicating the percentage of cellular uptake (surface uptake) regarding the initial or first activity. Acetic acid/0.5 M NaCl was added, the tubes were centrifuged, and the activity was measured. The liquid was removed, and activity in button activity represented the percentage of activity internalized by cells relative to uptake activity (internalization fraction of surface uptake). […]

[3] = tested on: HCC827 cells (PD-L1 positive); assay: Cellular uptake and internalization, HCC827; assay type: cell-based, human; conditions: HCC827, 1 × 10^6 cells/tube, 7.4 kBq, 37 °C, 1 h, n = 3
Experimental: as §1, §2

## CCCC[C@H]1C(=O)N(C)[C@@H](CCCC)C(=O)N[C@@H](CCCNC(=O)c2ccc(NN)nc2)C(=O)N[C@H](C(=O)NCC(N)=O)CSCC(=O)N[C@@H](Cc2ccc(O)cc2)C(=O)N(C)[C@@H](C)C(=O)N[C@@H](CC(N)=O)C(=O)N2CCC[C@H]2C(=O)N[C@@H](Cc2c[nH]cn2)C(=O)N[C@@H](CC(C)C)C(=O)N2C[C@H](O)C[C@H]2C(=O)N[C@@H](Cc2c[nH]c3ccccc23)C(=O)N[C@@H](CO)C(=O)N[C@@H](Cc2cn(C)c3ccccc23)C(=O)N1C [[^99mTc]Tc-WL12, metal not drawn]
[1]
  retention time, reversed-phase radio-HPLC: 15.0 ± 0.3 min
[2]
  uptake and internalization compared to C6 cells (PD-L1 negative): significantly higher
[3]
  uptake and internalization compared to C6 cells (PD-L1 negative): significantly higher
